Like-named read-outs stand apart in the source and are kept apart here.
Assays:
[1] = test system: HCV genotype 1a (H77 strain) replicon in HUH-7 cells; assay: HCV replicon luciferase reporter assay, genotype 1a; type: cell-based; settings: Hepatitis C virus, Huh-7, 72 h, 3 days incubation
How it was run: (§1)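 Replicon inhibition for both genotypes was measured as Renilla luciferase signal (EnduRen, 7.5 μM final, 2 h) after 3-day, 37° C exposure of replicon-bearing HUH-7 cells in 4% FCS DMEM, 0.5% DMSO. The 1b construct carries S1179I; the 1a H77 construct carries P1496L and S2204I. Twenty-point, 3-fold dilutions were fitted four-parametrically for EC50, and CC50 was taken from multiplexed Cell Titer-Blue.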

[2] = test system: HCV genotype 1b (Con1) replicon in HUH-7 cells; assay: HCV replicon luciferase reporter assay, genotype 1b; type: cell-based; settings: Hepatitis C virus, Huh-7, 72 h, 3 days incubation
How it was run: as §1

[3] = HCV genotype 1a replicon luciferase, read-out: LE_1a (EC50, range)
[4] = HCV genotype 1b replicon luciferase, read-out: LE_1b (EC50, range)
[5] = HCV genotype 1a replicon luciferase assay, range class, read-out: LE_1a (EC50, range)
[6] = HCV genotype 1b replicon luciferase assay, range class, read-out: LE_1b (EC50, range)
[7] = GETYPE1A, HCV genotype 1a replicon luciferase, read-out: LE_1a (EC50, range)
[8] = GETYPE1B, HCV genotype 1b replicon luciferase, read-out: LE_1b (EC50, range)

Row | SMILES | EC50 [1, 3] [nM] | EC50 [2, 4] [nM] | further results
1 | CC[C@@H]1C[C@H](C)CC/C=C\[C@@H]2C[C@@]2(C(=O)NS(=O)(=O)C2(C)CC2)NC(=O)[C@@H]2C[C@@H](Oc3ncc(OC)c4ccc(F)cc34)CN2C(=O)[C@H]1NC(=O)N1CCN(C)CC1 [Compound 4341, (2R,6S,7R,9R,13aS,14aR,16aS,Z)-7-ethyl-2-((7-fluoro-4-methoxyisoquinolin-1-yl)oxy)-9-methyl-N-((1-methylcyclopropyl)sulfonyl)-6-(4-methylpiperazine-1-carboxamido)-5,16-dioxo-1,2,3,5,6,7,8,9,10,11,13a,14,14a,15,16,16a-hexadecahydrocyclopropa[e]pyrrolo[1,2-a][1,4]diazacyclopentadecine-14a-carboxamide] | 1.01 to 5 | 1.01 to 5 | –
2 | CCOc1cnc(O[C@@H]2C[C@H]3C(=O)N[C@]4(C(=O)NS(=O)(=O)C5(C)CC5)C[C@H]4/C=C\CC[C@@H](C)C[C@@H](CC)[C@H](NC(=O)OC(C)(C)C(F)F)C(=O)N3C2)c2ccccc12 [Compound 5531, 1,1-difluoro-2-methylpropan-2-yl((2R,6S,7R,9R,13aS,14aR,16aS,Z)-2-((4-ethoxyisoquinolin-1-yl)oxy)-7-ethyl-9-methyl-14a-(((1-methylcyclopropyl)sulfonyl)carbamoyl)-5,16-dioxo-1,2,3,5,6,7,8,9,10,11,13a,14,14a,15,16,16a-hexadecahydrocyclopropa[e]pyrrolo[1,2-a][1,4]diazacyclopentadecin-6-yl)carbamate] | 1.01 to 5 | 0.51 to 1 | –
3 | COc1ccc2c(O[C@@H]3C[C@H]4C(=O)N[C@]5(C(=O)NS(=O)(=O)C6(C)CC6)C[C@H]5/C=C\CC[C@@H](C)C[C@@H](C)[C@H](NC(=O)OC5(C(F)(F)F)COC5)C(=O)N4C3)nc(OC)cc2c1 [Compound 1141, 3-(trifluoromethyl)oxetan-3-yl ((2R,6S,7R,9R,13aS,14aR,16aS,Z)-2-((3,6-dimethoxyisoquinolin-1-yl)oxy)-7,9-dimethyl-14a-(((1-methylcyclopropyl)sulfonyl)carbamoyl)-5,16-dioxo-1,2,3,5,6,7,8,9,10,11,13a,14,14a,15,16,16a-hexadecahydrocyclopropa[e]pyrrolo[1,2-a][1,4]diazacyclopentadecin-6-yl)carbamate] | – | – | EC50 [1, 5]: < 5.46 nM; EC50 [2, 6]: < 5.46 nM
4 | COCCOc1cc2c(Cl)cccc2c(O[C@@H]2C[C@H]3C(=O)N[C@]4(C(=O)NS(=O)(=O)C5(C)CC5)C[C@H]4/C=C\CC[C@H](C)C[C@@H](C)[C@H](NC(=O)OC(C)(C)C)C(=O)N3C2)n1 [Compound 1117, tert-butyl ((2R,6S,7R,9S,13aS,14aR,16aS,Z)-2-((5-chloro-3-(2-methoxyethoxyl)isoquinolin-1-yl)oxy)-7,9-dimethyl-14a-(((1-methylcyclopropyl)sulfonyl)carbamoyl)-5,16-dioxo-1,2,3,5,6,7,8,9,10,11,13a,14,14a,15,16,16a-hexadecahydrocyclopropa[e]pyrrolo[1,2-a][1,4]diazacyclopentadecin-6-yl)carbamate] | – | – | EC50 [1, 5]: < 5.46 nM; EC50 [2, 6]: < 5.46 nM
5 | COc1ccc2c(O[C@@H]3C[C@H]4C(=O)N[C@]5(C(=O)NS(=O)(=O)C6(C)CC6)C[C@H]5/C=C\CC[C@@H](C)C[C@@H](C)[C@H](NC(=O)OC(C)(C)C(C)(F)F)C(=O)N4C3)nc(-c3ccc(OC(C)C)cc3)c(OC)c2c1 [Compound 5346, 3,3-difluoro-2-methylbutan-2-yl((2R,6S,7R,9R,13aS,14aR,16aS,Z)-2-((3-(4-isopropoxyphenyl)-4,6-dimethoxyisoquinolin-1-yl)oxy)-7,9-dimethyl-14a-(((1-methylcyclopropyl)sulfonyl)carbamoyl)-5,16-dioxo-1,2,3,5,6,7,8,9,10,11,13a,14,14a,15,16,16a-hexadecahydrocyclopropa[e]pyrrolo[1,2-a][1,4]diazacyclopentadecin-6-yl)carbamate] | < 5.46 | < 5.46 | –
6 | CC[C@@H]1C[C@H](C)CC/C=C\[C@@H]2C[C@@]2(C(=O)NS(=O)(=O)C2(C)CC2)NC(=O)[C@@H]2C[C@@H](Oc3ncc(OC)c4ccc(F)cc34)CN2C(=O)[C@H]1NC(=O)OC(C)(C)C [Compound 4181, tert-butyl (2R,6S,7R,9R,13aS,14aR,16aS,Z)-7-ethyl-2-(7-fluoro-4-methoxyisoquinolin-1-yloxy)-9-methyl-14a-(1-methylcyclopropylsulfonylcarbamoyl)-5,16-dioxo-1,2,3,5,6,7,8,9,10,11,13a,14,14a,15,16,16a-hexadecahydrocyclopropa[e]pyrrolo[1,2-a][1,4]diazacyclopentadecin-6-ylcarbamate] | < 5.46 | < 5.46 | –
7 | C[C@H]1CC/C=C\[C@@H]2C[C@@]2(C(=O)NS(=O)(=O)C2(C)CC2)NC(=O)[C@@H]2C[C@@H](Oc3nccc4c5c(ccc34)OCCO5)CN2C(=O)[C@@H](NC(=O)OCC2(C)CC2)[C@H](C)C1 [Compound 5250, (1-methylcyclopropyl)methyl ((2R,6S,7R,9S,13aS,14aR,16aS,Z)-2-((2,3-dihydro-[1,4]dioxino[2,3-f]isoquinolin-7-yl)oxy)-7,9-dimethyl-14a-(((1-methylcyclopropyl)sulfonyl)carbamoyl)-5,16-dioxo-1,2,3,5,6,7,8,9,10,11,13a,14,14a,15,16,16a-hexadecahydrocyclopropa[e]pyrrolo[1,2-a][1,4]diazacyclopentadecin-6-yl)carbamate] | 4.82 to 103 | 4.82 to 103 | EC50 ([1]; HCV genotype 1a replicon luciferase, read-out: LE_1a (EC50)): 22.6 nM; EC50 ([2]; HCV genotype 1b replicon luciferase, read-out: LE_1b (EC50)): 5.5 nM
8 | COc1ccc2c(O[C@@H]3C[C@H]4C(=O)N[C@]5(C(=O)NS(=O)(=O)C6(C)CC6)C[C@H]5/C=C\CC[C@@H](C)C[C@@H](C)[C@H](NC(=O)OC(C)(C)C)C(=O)N4C3)nc(-c3ccc(OC(C)C)cc3)c(OC)c2c1 [Compound 5344, tert-butyl ((2R,6S,7R,9R,13aS,14aR,16aS,Z)-2-((3-(4-isopropoxyphenyl)-4,6-dimethoxyisoquinolin-1-yl)oxy)-7,9-dimethyl-14a-(((1-methylcyclopropyl)sulfonyl)carbamoyl)-5,16-dioxo-1,2,3,5,6,7,8,9,10,11,13a,14,14a,15,16,16a-hexadecahydrocyclopropa[e]pyrrolo[1,2-a][1,4]diazacyclopentadecin-6-yl)carbamate] | < 5.46 | < 5.46 | –
9 | CC[C@@H]1C[C@H](C)CC/C=C\[C@@H]2C[C@@]2(C(=O)NS(=O)(=O)C2(C)CC2)NC(=O)[C@@H]2C[C@@H](Oc3ncc(OC)c4ccccc34)CN2C(=O)[C@H]1NC(=O)OC(C)(C)C(F)F [Compound 5533, 1,1-difluoro-2-methylpropan-2-yl((2R,6S,7R,9R,13aS,14aR,16aS,Z)-7-ethyl-2-((4-methoxyisoquinolin-1-yl)oxy)-9-methyl-14a-(((1-methylcyclopropyl)sulfonyl)carbamoyl)-5,16-dioxo-1,2,3,5,6,7,8,9,10,11,13a,14,14a,15,16,16a-hexadecahydrocyclopropa[e]pyrrolo[1,2-a][1,4]diazacyclopentadecin-6-yl)carbamate] | 1.01 to 5 | 0.1 to 0.5 | –
10 | COc1ccc2nc(O[C@@H]3C[C@H]4C(=O)N[C@]5(C(=O)NS(=O)(=O)C6(C)CC6)C[C@H]5/C=C\CC[C@@H](C)C[C@@H](C)[C@H](NC(=O)OC(C)(C)C)C(=O)N4C3)cnc2c1 [Compound 4085, tert-butyl (2R,6S,7R,9R,13aS,14aR,16aS,Z)-2-(6-methoxyquinoxalin-2-yloxy)-7,9-dimethyl-14a-(1-methylcyclopropylsulfonylcarbamoyl)-5,16-dioxo-1,2,3,5,6,7,8,9,10,11,13a,14,14a,15,16,16a-hexadecahydrocyclopropa[e]pyrrolo[1,2-a][1,4]diazacyclopentadecin-6-ylcarbamate] | 4.82 to 103 | < 5.46 | –
11 | COCCOc1cnc(O[C@@H]2C[C@H]3C(=O)N[C@]4(C(=O)NS(=O)(=O)C5CC5)C[C@H]4/C=C\CC[C@H](C)C[C@@H](C)[C@H](NC(=O)OC(C)(C)C(C)(F)F)C(=O)N3C2)c2ccc(OC)cc12 [Compound 1150, 3,3-difluoro-2-methylbutan-2-yl((2R,6S,7R,9S,13aS,14aR,16aS,Z)-14a-((cyclopropylsulfonyl)carbamoyl)-2-((6-methoxy-4-(2-methoxyethoxyl)isoquinolin-1-yl)oxy)-7,9-dimethyl-5,16-dioxo-1,2,3,5,6,7,8,9,10,11,13a,14,14a,15,16,16a-hexadecahydrocyclopropa[e]pyrrolo[1,2-a][1,4]diazacyclopentadecin-6-yl)carbamate] | – | – | EC50 [1, 5]: < 5.46 nM; EC50 [2, 6]: < 5.46 nM
12 | COc1cc2ccnc(O[C@@H]3C[C@H]4C(=O)N[C@]5(C(=O)NS(=O)(=O)C6(F)CC6)C[C@H]5/C=C\CC[C@@H](C)C[C@@H](C)[C@H](NC(=O)OC(C)(C)C(F)(F)F)C(=O)N4C3)c2cc1F [Compound 4069] | – | – | EC50 [1, 7]: < 5.46 nM; EC50 [2, 8]: < 5.46 nM
13 | C[C@@H]1CC/C=C\[C@@H]2C[C@@]2(C(=O)NS(=O)(=O)C2(C)CC2)NC(=O)[C@@H]2C[C@@H](Oc3ncc(OC(=O)OC(C)(C)C(F)(F)F)c4ccccc34)CN2C(=O)[C@@H](NC(=O)OC(C)(C)C(F)(F)F)[C@H](C)C1 [Compound 4133] | – | – | EC50 [1, 7]: 4.82 to 103 nM; EC50 [2, 8]: < 5.46 nM

— patent US9499550B2 (BRISTOL-MYERS SQUIBB COMPANY, priority 2012, dated 2016)
